In patent US20260285857A1, “BICYCLIC AND HETEROCYCLIC AMIDE COMPOUNDS” (priority 2024, published 2026):

test system: immunoglobulin light chain protein WIL-FL T46L; test: Differential scanning fluorimetry (thermal shift) assay; type: binding; settings: Table A; temperature shift [Tm]compound-[Tm]vehicle; recombinant WIL-FL T46L

SMILES	DSF
Cc1cc(N2CC[C@](C)(c3ccccc3)C2)cn2nc(C(=O)N[C@@H]3CCNC3)nc12 [Compound 102]	***** (>2.5° C.=*****)
Cc1cc(N2CC[C@](C)(c3ccccc3)C2)cn2nc(C(=O)N3CC[C@H](O)C3)nc12 [Compound 174]	***** (>2.5° C.=*****)
Cc1cc(N2CC[C@](C)(c3ccccc3)C2)cn2nc(C(=O)N3Cc4nc(-c5cccc(C(=O)O)n5)oc4C3)nc12 [Compound 250]	***** (>2.5° C.=*****)
Cc1cc(N2CC[C@](C)(c3ccccc3)C2)cn2nc(C(=O)NC3CCN(N4C[C@@H](O)[C@@H](O)C4)C3)nc12 (stereo partly drawn) [Compound 156]	***** (>2.5° C.=*****)
Cc1cc(N2CC[C@](C)(c3ccccc3)C2)cn2nc(C34CC(CO3)C4c3nc(N)n[nH]3)nc12 (stereo partly drawn) [Compound 438, 5-[1-[8-methyl-6-[(3R)-3-methyl-3-phenyl-pyrrolidin-1-yl]-[1,2,4]triazolo[1,5-a]pyridine-2-yl]-2-oxabicyclo[2.1.1]hexan-5-yl]-1H-1,2,4-triazol-3-amine]	***** (>2.5° C.=*****)
Cc1cc(N2CC[C@](C)(c3ccccc3)C2)cn2nc(C(=O)NC3CNCC3(F)F)nc12 (stereo partly drawn) [Compound 150]	***** (>2.5° C.=*****)
Cc1cc(N2CC[C@](C)(c3ccccc3)C2)cn2nc(C34CC(CO3)C4Cn3ncnc3C)nc12 (stereo partly drawn) [Compound 82]	***** (>2.5° C.=*****)
Cc1cc(N2CC[C@](C)(c3ccccc3)C2)cn2nc(C(=O)N3CCn4nc(-c5cc(C(=O)O)ccn5)nc4C3)nc12 [Compound 405]	***** (>2.5° C.=*****)
Cc1cc(N2CC[C@](C)(c3ccccc3)C2)cn2nc(C(=O)NC3CC(N4C[C@@H](O)[C@@H](O)C4)C3)nc12 (stereo partly drawn) [Compound 361]	***** (>2.5° C.=*****)
Cc1cc(N2CC[C@](C)(c3ccccc3)C2)cn2nc(C(=O)NCC3(O)CCOCC3)nc12 [Compound 116]	***** (>2.5° C.=*****)
Cc1cc(N2CC[C@](C)(c3ccccc3)C2)cn2nc(C3OC4(CO)CC3(C(N)=O)C4)nc12 (stereo partly drawn) [Compound 12]	***** (>2.5° C.=*****)
Cc1cc(N2CC[C@](C)(c3ccccc3)C2)cn2nc(C(=O)N3CCC4(CC3)CC(N3CC5C(C3)C5C(=O)O)CO4)nc12 (stereo partly drawn) [Compound 370]	***** (>2.5° C.=*****)
Cc1cc(N2CC[C@](C)(c3ccccc3)C2)cn2nc(C(=O)N[C@@H]3CCC[C@@H]3O)nc12 [Compound 142]	***** (>2.5° C.=*****)
Cc1cc(N2CC[C@](C)(c3ccccc3)C2)cn2nc(C(=O)N3CC4=C(C3)CN(c3cccc(C(=O)O)n3)C4)nc12 [Compound 231]	***** (>2.5° C.=*****)
Cc1cc(N2CC[C@](C)(c3ccccc3)C2)cn2nc(C(=O)NC3CCOCC3)nc12 [Compound 198]	***** (>2.5° C.=*****)
Cc1cc(N2CCC(C)(c3ccc(O)cc3)C2)cn2nc(C(=O)N3CC[C@@]4(CCN(c5cccc(C(=O)O)n5)C4)C3)nc12 (stereo partly drawn) [Compound 413]	**** (>1.5-2.5° C.=****)

SMILES	DSF
Cc1cc(N2CC[C@](C)(c3ccccc3)C2)cn2nc(C(=O)N3CCCC(C)(C(=O)O)C3)nc12 (stereo partly drawn) [Compound 178]	***** (>2.5° C.=*****)
Cc1cc(N2CC[C@](C)(c3ccccc3)C2)cn2nc(C(=O)NC3CCN(c4cccc(C(=O)O)c4)CC3)nc12 [Compound 273]	***** (>2.5° C.=*****)
CNC(=O)c1nc2c(C#N)cc(N3CC[C@](C)(c4ccccc4)C3)cn2n1 [Compound 338]	* (0-0.5° C.=*)
CCC1(c2ccccc2)CN(c2cc(C)c3nc(C(=O)NC)nn3c2)C1 [Compound 33, 6-(3-ethyl-3-phenyl-azetidin-1-yl)-N, 8-dimethyl-[1,2,4]triazolo[1,5-a]pyridine-2-carboxamide]	***** (>2.5° C.=*****)
Cc1cc(N2CC[C@](C)(c3ccccc3)C2)cn2nc(C(=O)N3CCC4(CCN(c5ncno5)C4)C3)nc12 (stereo partly drawn) [Compound 253]	***** (>2.5° C.=*****)
Cc1cc(OC[C@H](C)c2ccccc2)cn2nc(C(=O)O)nc12 [Compound 312]	**** (>1.5-2.5° C.=****)
Cc1cc(N2CCC(C)(c3c(F)cccc3F)C2)cn2nc(C(=O)N3C[C@@H]4CN(c5cccc(C(=O)O)n5)C[C@@H]4C3)nc12 (stereo partly drawn) [Compound 389]	***** (>2.5° C.=*****)
Cc1cc(N2CC[C@](C)(c3ccccc3)C2)cn2nc(C34CC(CO)(CO3)C4)nc12 [Compound 60]	***** (>2.5° C.=*****)
Cc1cccc([C@@]2(C)CCN(c3cc(C)c4nc(C(=O)N5CC[C@@]6(CCN(c7cccc(C(=O)O)n7)C6)C5)nn4c3)C2)c1 [Compound 416]	***** (>2.5° C.=*****)
COC(=O)c1cc(N2CCC(NC(=O)c3nc4c(C)cc(N5CC[C@](C)(c6ccccc6)C5)cn4n3)CC2)ccn1 [Compound 263]	***** (>2.5° C.=*****)
CNC(=O)c1nc2c(CO)cc(N3CC[C@](C)(c4ccccc4)C3)cn2n1 [Compound 351]	***** (>2.5° C.=*****)
CNC(=O)c1nc2c(C)cc(N3CCC(C)(c4ccccc4F)C3)cn2n1 (stereo not drawn) [Compound 425]	***** (>2.5° C.=*****)
Cc1cc(N2CC[C@](C)(c3ccccc3)C2)cn2nc(C(=O)NC3CC4(C3)CC(N3CC5C(C3)C5C(N)=O)C4)nc12 (stereo partly drawn) [Compound 367]	***** (>2.5° C.=*****)
Cc1cc(N2CC[C@](C)(c3ccccc3)C2)cn2nc(C(=O)N3CCC4NC(=O)CC43)nc12 (stereo partly drawn) [Compound 135]	***** (>2.5° C.=*****)
Cc1cc(N2CC[C@](C)(c3ccccc3)C2)cn2nc(C34CC(CO3)C4Cn3cc(C(N)=O)nn3)nc12 (stereo partly drawn) [Compound 92]	***** (>2.5° C.=*****)

same assay, conditions: Table B; temperature shift [Tm]compound-[Tm]vehicle; recombinant WIL-FL T46L

SMILES	DSF
COc1cc(N2C[C@H]3CN(C(=O)c4nc5c(C)cc(N6CC[C@](C)(c7ccccc7)C6)cn5n4)C[C@H]3C2)cc(C(=O)O)n1 [Compound 630]	***** (>2.5° C.=*****)
Cc1cc(N2CC3(CC[C@H]3c3cccc(F)c3)C2)cn2nc(C(=O)N3CC[C@@]4(CCN(c5cccc(C(=O)O)n5)C4)C3)nc12 [Compound 736, 6-[(5R)-2-[6-[(7S)-7-(3-fluorophenyl)-2-azaspiro[3.3]heptan-2-yl]-8-methyl-[1,2,4]triazolo[1,5-a]pyridine-2-carbonyl]-2,7-diazaspiro[4.4]nonan-7-yl]pyridine-2-carboxylic acid]	***** (>2.5° C.=*****)
Cc1cc(N2CC[C@](C)(c3ccccc3)C2)cn2nc(C(=O)NCC3(O)CN(c4cccc(C(=O)O)n4)C3)nc12 [Compound 613]	***** (>2.5° C.=*****)
Cc1cc(N2CC[C@](C)(c3ccccc3)C2)cn2nc(C34CC(CO3)C4N3C[C@]4(CC[C@@H](C(=O)O)CC4)NC3=O)nc12 (stereo partly drawn) [Compound 526]	***** (>2.5° C.=*****)
Cc1cc(N2CC[C@](C)(c3ccccc3)C2)cn2nc(C(=O)NC[C@@H]3CCCN3c3cccc(C(=O)O)n3)nc12 [Compound 689]	***** (>2.5° C.=*****)
Cc1cc(N2CC[C@](C)(c3ccccc3)C2)cn2nc(C34CC(C#N)(CO3)C4)nc12 [Compound 464, (R)-1-(8-methyl-6-(3-methyl-3-phenylpyrrolidin-1-yl)-[1,2,4]triazolo[1,5-a]pyridin-2-yl)-2-oxabicyclo[2.1.1]hexane-4-carbonitrile]	***** (>2.5° C.=*****)
Cc1cc(N2CC[C@](C)(c3ccccc3)C2)cn2nc(C34CC(CO3)C4N3CCOCC3)nc12 (stereo partly drawn) [Compound 527, 4-(1-(8-methyl-6-((R)-3-methyl-3-phenylpyrrolidin-1-yl)-[1,2,4]triazolo[1,5-a]pyridin-2-yl)-2-oxabicyclo[2.1.1]hexan-5-yl)morpholine]	***** (>2.5° C.=*****)
Cc1cc(N2CC[C@](C)(c3ccccc3)C2)cn2nc(C(=O)N3CCC4(CCN(c5nccc(C(=O)O)n5)C4)C3)nc12 (stereo partly drawn) [Compound 716]	***** (>2.5° C.=*****)
Cc1cc(N2CC[C@](C)(c3ccccc3)C2)cn2nc(C(=O)N3C[C@@H]4CN(c5cccc(C(=O)O)n5)C[C@]4(C)C3)nc12 [Compound 643]	***** (>2.5° C.=*****)
Cc1cc(N2CC[C@](C)(c3ccccc3)C2)cn2nc(C34CC(CO3)C4COC3CC4(CNC4)C3)nc12 (stereo partly drawn) [Compound 501]	***** (>2.5° C.=*****)
Cc1cc(N2CC[C@](C)(c3ccccc3)C2)cn2nc(C34CC(CO3)C4c3nc(NS(=O)(=O)[C@H]4CC[C@@H](C(=O)O)CC4)n[nH]3)nc12 (stereo partly drawn) [Compound 561]	***** (>2.5° C.=*****)
Cc1cc(N2CC[C@](C)(c3ccccc3)C2)cc2nc(C(=O)N3CC[C@@]4(CCN(c5cccc(C(=O)O)n5)C4)C3)oc12 [Compound 756, 6-[(5R)-2-[7-methyl-5-[(3R)-3-methyl-3-phenyl-pyrrolidin-1-yl]-1,3-benzoxazole-2-carbonyl]-2,7-diazaspiro[4.4]nonan-7-yl]pyridine-2-carboxylic acid]	**** (>1.5-2.5° C.=****)
Cc1cc(N2CC[C@](C)(c3ccccc3)C2)cn2nc(C(=O)N3CCC4(CCC(C(=O)O)O4)C3)nc12 (stereo partly drawn) [Compound 594]	***** (>2.5° C.=*****)
Cc1cc(N2CC[C@](C)(c3ccccc3)C2)cn2nc(C(=O)NC3CC4(CCN(c5cccc(C(=O)O)n5)CC4)C3)nc12 [Compound 642, 6-[2-[[8-methyl-6-[(3R)-3-methyl-3-phenyl-pyrrolidin-1-yl]-[1,2,4]triazolo[1,5-a]pyridine-2-carbonyl]amino]-7-azaspiro[3.5]nonan-7-yl]pyridine-2-carboxylic acid]	***** (>2.5° C.=*****)
Cc1cc(N2CC[C@](C)(c3ccccc3)C2)cn2nc([C@]34C[C@H](CO3)[C@@H]4N3CC4(CN(c5cccc(C(=O)O)n5)C4)NC3=O)nc12 [Compound 520]	***** (>2.5° C.=*****)
Cc1cc(N2CC[C@](C)(c3ccccc3)C2)cn2nc(C34CC(CO3)C4COC3CC4(C3)CN(c3ccnc(O)c3)C4)nc12 (stereo partly drawn) [Compound 497, 4-(6-((1-(8-methyl-6-((R)-3-methyl-3-phenylpyrrolidin-1-yl)-[1,2,4]triazolo[1,5-a]pyridin-2-yl)-2-oxabicyclo[2.1.1]hexan-5-yl)methoxy)-2-azaspiro[3.3]heptan-2-yl)pyridin-2-ol]	***** (>2.5° C.=*****)
Cc1cc(N2CC[C@](C)(c3ccccc3)C2)cn2nc(C(=O)N[C@H]3C[C@]4(CCN(c5cccc(C(=O)O)n5)C4)C3)nc12 [Compound 623]	***** (>2.5° C.=*****)
